Patent EP3875583A1, “GENETIC CASSETTE COMPRISING THE PHT PATHWAY GENES, RECOMBINANT HOST CELLS COMPRISING IT AND THEIR USE IN THE DEGRADATION AND VALORIZATION OF PHTHALATES” (Consejo Superior de Investigaciones Científicas (CSIC), priority 2020, dated 2021)

How the values were obtained:
Assay type in all cases: cell-based
A. evansii cells = experiment: [14C]-PA uptake assay in A. evansii cells grown under nitrate-reducing conditions; conditions: Aromatoleum evansii; cells grown anaerobically on PA, exposed to 1 mM inhibitor before the [14C]-PA transport assay; read-out: PA transport capacity retained
Method: Cells were grown in NB from A600 of 0.1 to A600 of 1.8≈2.0, incubated for 14h, induced by adding 1.0 mM IPTG. Cells were harvested by centrifugation, washed twice in sodium salt and suspended at a cell density of 1090 mg of protein/liter (A600 of 4.0) in sodium salt. The uptake of radioactive o-phthalate into cells was followed in a reaction mixture containing 50 µL of prewarmed cells (at 30°C for 5 min) and 50 µL of 250 µM [^14C]-o-phthalate. […] Phthalate uptake was stopped by diluting the suspensions with 1 mL of ice-cold sodium salt, collecting the cells on a 0.22-µm-pore-size Millipore GSWP nitrocellulose filter, and washing, under suction, the cells with 5 mL of ice-cold sodium salt. The filter was dissolved in 2 ml of scintillation fluid (Cocktail Ready Safe, Beckman) and counted in an LKB Wallac liquid scintillation counter. […] To test the transporter's specificity the assays were performed according to the standard procedure but adding different unlabeled substrates: o-phthalate (250 mM), isophthalate (250 mM), terephthalate (250 mM).
To study PA transport in denitrifying bacteria expressing the pht peripheral pathway, we used A. evansii cells grown anaerobically in MC medium containing 5 mM benzoate or 5 mM PA. Cells suspended in sodium salt were incubated with 25 µM [^14C]-PA, and a time-course of the amount of [^14C]-PA incorporated into the cells was determined. […]

[1] = tested on: PhtTa-PhtTb TAXI-TRAP transporter; experiment: [14C]-PA uptake assay in Azoarcus sp. CIB (pIZPHTRAP) cells expressing the transporter; conditions: for [14C]-PA uptake after pre-incubation with inhibitor: cells pre-incubated 10 min with 1 mM inhibitor before the transport assay; for [14C]-PA uptake rate, % of the rate in the absence of a competitor substrate: 25 µM [14C]-PA
Method: Cells were grown in NB from A600 of 0.1 to A600 of 1.8≈2.0, incubated for 14h, induced by adding 1.0 mM IPTG. Cells were harvested by centrifugation, washed twice in sodium salt and suspended at a cell density of 1090 mg of protein/liter (A600 of 4.0) in sodium salt. […] Phthalate uptake was stopped by diluting the suspensions with 1 mL of ice-cold sodium salt, collecting the cells on a 0.22-µm-pore-size Millipore GSWP nitrocellulose filter, and washing, under suction, the cells with 5 mL of ice-cold sodium salt. The filter was dissolved in 2 ml of scintillation fluid (Cocktail Ready Safe, Beckman) and counted in an LKB Wallac liquid scintillation counter. […]
We have shown above that the phtTa-phtTb transport genes are essential for the anaerobic degradation of PA. To confirm that the phtTa-phtTb genes encode a PA transporter and to determine its biochemical properties, we performed PA uptake experiments at different [^14C]-PA concentrations in Azoarcus sp. […] CIB (pIZPHTRAP), i.e., cells that express the catabolic pht genes as well as the phtTa-phtTb transport genes - the genetic cassette of the invention. […]. […] [^14C]-PA uptake rates were tested in the presence of non-radioactive phthalate isomers as competitors.

[2] = tested on: Azoarcus sp. CIB (pIZPHTRAP) strain
benA gene = experiment: real-time RT-PCR gene expression in C. necator H16 (pIZPHTRAP) cells; conditions: cells grown on 3 mM PA compared with 18 mM pyruvate (control); result in words
Method: (§1) Cupriavidus necator H16 and Azoarcus sp. CIB cells harboring plasmid pIZPHTRAP were grown aerobically on PA-, benzoate- or pyruvate-containing MC medium until the culture reached to the end of the exponential phase. Cells were lysed in TE buffer (10 mM Tris-HCI, pH 7.5, 1 mM EDTA) containing 50 mg ml^-1 lysozyme. Total RNA was extracted using a High Pure RNA isolation kit (Roche), and then it was DNase-treated with a Turbo DNase kit (Ambion). The concentration and purity of the RNA samples were assessed using a Nanophotometer Pearl (Implen) according to the manufacturer's protocols, and by testing the absence of DNA through PCR amplification. Synthesis of total cDNA was performed by using the Transcriptor First Strand cDNA Synthesis kit (Roche) in 20-µl reactions containing 1 µg of RNA, 1 mM concentration of each dNTP, 10 units of reverse transcriptase, 20 units of Protector RNase Inhibitor, and 60 µM random hexamers as primers in the buffer provided by the manufacturer. The RNA and hexamers were initially heated at 65 °C for 10 min and following the addition of the rest of the components, samples were incubated at 25°C for 10 min and then at 55°C for 30 min. Reactions were terminated by incubation at 85°C for 5 min. In standard RT-PCR reactions, the cDNA was amplified with 1 unit of AmpliTaq DNA polymerase (Biotools) and […] concentrations of the corresponding primer pairs of the boxB gene from Azoarcus sp. CIB (Table 2). […] For relative quantification of the fluorescence values, a calibration curve was constructed by sevenfold serial dilutions of a C. necator H16 genomic DNA sample ranging from 1 ng to 0.5 x10-7 ng. […]
(§2) To confirm that C. necator H16 (pIZPHTRAP) was degrading PA via the box pathway, we analyzed the expression of some marker genes of the classical ben-cat pathway, e.g. benA gene, and the hybrid box pathway, e.g., boxB1 (for cluster box1) and boxB2 (for cluster box2) (Fig. 5C). qRT-PCR gene expression studies of C. necator H16 (pIZPHTRAP) cells grown on PA were compared with those of cells grown on pyruvate (control). […]

boxB2 gene = experiment: as above; conditions: cells grown on 3 mM PA compared with 18 mM pyruvate (control)
Method: as §1, §2

boxB1 gene = experiment: as above; conditions: cells grown on 3 mM PA compared with 18 mM pyruvate (control)
Method: as §1, §2

[3] = tested on: C. necator H16 (pIZPHTRAP) cells; experiment: PHB content by GC-MS of the methanolysed polyester, aerobic bioconversion; conditions: cells grown aerobically on the substance as sole carbon source (3 mM), MC medium, 30°C, stationary phase

C(=NC1CCCCC1)=NC1CCCCC1 [DCCD, 1,3-dicyclohexylcarbodiimide, reference compound]
activity at 1000 µM (A. evansii cells): > 80% | [14C]-PA uptake after pre-incubation with inhibitor ([1]; result in words): did not decrease

O=[N+]([O-])c1ccc(O)c([N+](=O)[O-])c1 [DNP, 2,4-dinitrophenol, reference compound]
[14C]-PA uptake after pre-incubation with inhibitor ([1]; result in words): completely inhibited

O=C(O)c1ccccc1C(=O)O [PA, o-phthalate]
uptake rate of 25 µM [14C]-PA with competitor ([1]; 250 µM unlabeled competitor, result in words): completely inhibited | Km ([1]; Azoarcus sp. CIB (pIZPHTRAP) cells, read-out: transport affinity (Km)): 15 µM | saturation kinetics ([1]; PA concentration at saturation, Azoarcus sp. CIB (pIZPHTRAP) cells): about 20 µM | maximum uptake rate ([1]; [14C]-PA 5 to 25 µM, Azoarcus sp. CIB (pIZPHTRAP) cells): about 156 ± 14 pmol min^-1 mg protein^-1 | PHB production efficiency, lower than that of the recombinant C. necator H16 strain [2]: 5 fold | basal expression of the benA gene (benA gene): similar | fold induction at 3000 µM (boxB2 gene): ~400 | fold induction at 3000 µM (boxB1 gene): ~40

O=C(O)c1ccccc1 [benzoate]
PHB accumulated, of the total cell dry weight [3]: 14%

O=C(O)c1cccc(C(=O)O)c1 [isophthalate, reference compound]
[14C]-PA uptake rate, % of the rate in the absence of a competitor substrate ([1]; 250 µM unlabeled competitor): 50%

O=C(O)c1ccc(C(=O)O)cc1 [terephthalate, reference compound]
[14C]-PA uptake rate, % of the rate in the absence of a competitor substrate ([1]; 250 µM unlabeled competitor): 60%
